Measured values as given in ChEMBL document CHEMBL1124295, “Synthesis and oral antiallergic activity of carboxylic acids derived from imidazo[2,1-c][1,4]benzoxazines, imidazo[1,2-a]quinolines, imidazo[1,2-a]quinoxalines, imidazo[1,2-a]quinoxalinones, pyrrolo[1,2-a]quinoxalinones, pyrrolo[2,3-a]quinoxalinones, and imidazo[2,1-b]benzothiazoles” (1988).
The source made the active and inactive calls. The calls are words filed in the database; no cut-off is given here.

Columns and labels:
Rattus norvegicus [1] = test: Inhibition of the IgE-mediated passive cutaneous anaphylaxis (PCA) reaction in rat after oral administration; NA means inactive 1 and 10 mg/kg; assay type: functional, organism-based; set-up: dose 10 mg/kg
Rattus norvegicus [2] = test: Inhibition of the IgE-mediated passive cutaneous anaphylaxis (PCA) reaction in rat after intravenous administration; Range 0.023-0.11; assay type: functional
Rattus norvegicus [3] = test: Inhibition of the IgE-mediated passive cutaneous anaphylaxis (PCA) reaction in rat after oral administration; NA means inactive at 1 and 10 mg/Kg; assay type: functional, organism-based
Rattus norvegicus [4] = test: Inhibition of the IgE-mediated passive cutaneous anaphylaxis (PCA) reaction in rat after oral administration; Range 0.07-0.4; assay type: functional
Rattus norvegicus [5] = test: Inhibition of the IgE-mediated passive cutaneous anaphylaxis (PCA) reaction in rat after intravenous administration; Range 0.021-0.033; assay type: functional
Rattus norvegicus [6] = test: Inhibition of the IgE-mediated passive cutaneous anaphylaxis (PCA) reaction in rat after oral administration; Range 0.4-2.34; assay type: functional
Rattus norvegicus [7] = test: Inhibition of the IgE-mediated passive cutaneous anaphylaxis (PCA) reaction in rat after oral administration; Inactive at 1 and 10 mg/kg; assay type: functional, organism-based; set-up: dose 10 mg/kg
Rattus norvegicus [8] = test: Inhibition of the IgE-mediated passive cutaneous anaphylaxis (PCA) reaction in rat after oral administration; Range 0.026-0.31; assay type: functional
Rattus norvegicus [9] = test: Inhibition of the IgE-mediated passive cutaneous anaphylaxis (PCA) reaction in rat after intravenous administration; Range 0.18-0.41; assay type: functional
Rattus norvegicus [10] = test: Inhibition of the IgE-mediated passive cutaneous anaphylaxis (PCA) reaction in rat after intravenous administration; Range 1.61-7; assay type: functional
Rattus norvegicus [11] = test: Inhibition of the IgE-mediated passive cutaneous anaphylaxis (PCA) reaction in rat after intravenous administration; Range 0.02-0.38; assay type: functional
Rattus norvegicus [12] = test: Inhibition of the IgE-mediated passive cutaneous anaphylaxis (PCA) reaction in rat after intravenous administration; Inactive at 1 and 10 mg/kg; assay type: functional, organism-based; set-up: dose 10 mg/kg
Rattus norvegicus [13] = test: Inhibition of the IgE-mediated passive cutaneous anaphylaxis (PCA) reaction in rat after oral administration; Inactive(50% inhibition at 10 mg/kg); assay type: functional
Rattus norvegicus [14] = test: Inhibition of the IgE-mediated passive cutaneous anaphylaxis (PCA) reaction in rat after intravenous administration; Range 0.24-1.05; assay type: functional
Rattus norvegicus [15] = test: Inhibition of the IgE-mediated passive cutaneous anaphylaxis (PCA) reaction in rat after intravenous administration; Range 0.13-0.26; assay type: functional
Rattus norvegicus [16] = test: Inhibition of the IgE-mediated passive cutaneous anaphylaxis (PCA) reaction in rat after intravenous administration; Range 0.058-0.12; assay type: functional
Rattus norvegicus [17] = test: Inhibition of the IgE-mediated passive cutaneous anaphylaxis (PCA) reaction in rat after oral administration; Inactive(45% inhibition at 20 mg/kg); assay type: functional
Rattus norvegicus [18] = test: Inhibition of the IgE-mediated passive cutaneous anaphylaxis (PCA) reaction in rat after oral administration; Range 0.025-0.282; assay type: functional
Rattus norvegicus [19] = test: Inhibition of the IgE-mediated passive cutaneous anaphylaxis (PCA) reaction in rat after intravenous administration; Range 0.005-0.033; assay type: functional
Rattus norvegicus [20] = test: Inhibition of the IgE-mediated passive cutaneous anaphylaxis (PCA) reaction in rat after intravenous administration; Range 0.25-0.41; assay type: functional
Rattus norvegicus [21] = test: Inhibition of the IgE-mediated passive cutaneous anaphylaxis (PCA) reaction in rat after intravenous administration; NA means inactive at 1 and 10 mg/Kg; assay type: functional, organism-based
Rattus norvegicus [22] = test: Inhibition of the IgE-mediated passive cutaneous anaphylaxis (PCA) reaction in rat after intravenous administration; Range 0.12-0.35; assay type: functional
Rattus norvegicus [23] = test: Inhibition of the IgE-mediated passive cutaneous anaphylaxis (PCA) reaction in rat after intravenous administration; Range 0.058-0.15; assay type: functional
Rattus norvegicus [24] = test: Inhibition of the IgE-mediated passive cutaneous anaphylaxis (PCA) reaction in rat after intravenous administration; Range 2.91-4.95; assay type: functional
Rattus norvegicus [25] = test: Inhibition of the IgE-mediated passive cutaneous anaphylaxis (PCA) reaction in rat after intravenous administration; Inactive; assay type: functional, organism-based
Rattus norvegicus [26] = test: Inhibition of the IgE-mediated passive cutaneous anaphylaxis (PCA) reaction in rat after intravenous administration; Range 0.022-0.04; assay type: functional
Rattus norvegicus [27] = test: Inhibition of the IgE-mediated passive cutaneous anaphylaxis (PCA) reaction in rat after intravenous administration; Range 0.22-0.38; assay type: functional

`N#Cc1cn2c(n1)COc1ccccc1-2` was tested, and the ED50 (Rattus norvegicus [1]) was “inactive”.
`CSc1cc2nc(C(=O)O)cn2c2ccccc12` showed an ED50 (Rattus norvegicus [2]) of 0.046 mg/kg.
With `c1ccc2c(c1)OCc1nc(-c3nn[nH]n3)cn1-2` the ED50 (Rattus norvegicus [3]) was “inactive”.
In the case of `COC(=O)c1nc2n(c1CO)-c1ccccc1OC2`, the ED50 (Rattus norvegicus [3]) is reported as “inactive”.
Molecule `COc1ccc2c(Cl)cc3nc(C(=O)O)cn3c2c1` has an ED50 (Rattus norvegicus [4]) of 0.34 mg/kg and an ED50 (Rattus norvegicus [5]) of 0.027 mg/kg.
In the case of `Cl.Cl.NCc1cn2c(ccc3ccccc32)n1`, the ED50 (Rattus norvegicus [6]) is reported as 0.976 mg/kg.
`Cc1c(C(=O)O)nc2cc(Cl)c3ccccc3n12` was tested, and the ED50 (Rattus norvegicus [7]) was “inactive”.
In the case of `O=Cc1cn2c(ccc3ccccc32)n1`, the ED50 (Rattus norvegicus [8]) is reported as 0.093 mg/kg.
Work on `C[S+]([O-])c1cc2nc(C(=O)O)cn2c2ccccc12` (stereo not given) yielded an ED50 (Rattus norvegicus [9]) of 0.29 mg/kg.
For `CCC1Oc2ccccc2-n2cc(C(=O)O)nc21` (stereo not given), the ED50 (Rattus norvegicus [10]) was 2.6 mg/kg.
For `O=C(O)c1cn2c(cc(-c3ccccc3)c3ccccc32)n1`, the ED50 (Rattus norvegicus [7]) was “inactive”.
In the case of `O=C(O)c1nc(Cc2ccccc2)n2c1c(O)nc1ccccc12`, the ED50 (Rattus norvegicus [7]) is reported as “inactive”.
In the case of `OCc1cn2c(cc(Cl)c3ccc(Cl)cc32)n1`, the ED50 (Rattus norvegicus [11]) is reported as 0.16 mg/kg.
`O=C(O)c1cn2c(cc(-c3ccccc3)c3cc(Cl)ccc32)n1` was tested, and the ED50 (Rattus norvegicus [7]) was “inactive”.
`COc1ccc2ccc3nc(C(=O)Nc4nn[nH]n4)cn3c2c1` was tested, and the ED50 (Rattus norvegicus [12]) was “inactive”.
For `COc1ccc2c(OC(C)C)cc3nc(C(=O)O)cn3c2c1`, the inhibition in vivo at 10 mg/kg (Rattus norvegicus [13]) was 50%.
In the case of `COc1ccc2c(OC)cc3nc(C(=O)O)cn3c2c1`, the ED50 (Rattus norvegicus [7]) is reported as “inactive”.
With `O=C(Nc1nn[nH]n1)c1cn2c(cnc3ccccc32)n1` the ED50 (Rattus norvegicus [14]) was 0.45 mg/kg and the ED50 (Rattus norvegicus [7]) was “inactive”.
Molecule `CCn1c(=O)c2cc(C(=O)Nc3nn[nH]n3)cn2c2ccccc21` has an ED50 (Rattus norvegicus [15]) of 0.18 mg/kg.
`O=C(O)c1nnn2c1c(O)nc1ccccc12` showed an ED50 (Rattus norvegicus [16]) of 0.084 mg/kg and an inhibition in vivo at 20 mg/kg (Rattus norvegicus [17]) of 45%.
Work on `c1ccc2c(c1)ncc1nc(-c3nn[nH]n3)cn12` yielded an ED50 (Rattus norvegicus [18]) of 0.089 mg/kg and an ED50 (Rattus norvegicus [19]) of 0.012 mg/kg.
`CCn1c(=O)c2nc(C(=O)Nc3nn[nH]n3)cn2c2ccccc21` showed an ED50 (Rattus norvegicus [20]) of 0.32 mg/kg.
`O=C(O)c1nc2n(c1C(=O)N1CCOCC1)-c1ccccc1OC2` was tested, and the ED50 (Rattus norvegicus [21]) was “inactive”.
For `O=C(O)c1cn2ccc3ccccc3c2n1`, the ED50 (Rattus norvegicus [21]) was “inactive”.
For `CCc1nc(C(=O)O)c2c(O)nc3ccccc3n12`, the ED50 (Rattus norvegicus [12]) was “inactive”.
`O=C(Cc1cn2c(n1)COc1ccccc1-2)Nc1nn[nH]n1` was tested, and the ED50 (Rattus norvegicus [21]) was “inactive”.
For `O=C(O)c1cn2c(cnc3cc(Cl)c(Cl)cc32)n1`, the ED50 (Rattus norvegicus [22]) was 0.2 mg/kg and the ED50 (Rattus norvegicus [7]) was “inactive”.
For `CCOC(=O)c1cn2c(n1)c(C#N)cc1ccccc12`, the ED50 (Rattus norvegicus [3]) was “inactive”.
For `C[S+](=N)([O-])c1ccc2ccc3nc(C(=O)O)cn3c2c1` (stereo not given), the ED50 (Rattus norvegicus [23]) was 0.095 mg/kg.
With `O=C(O)c1cn2c(ccc3c(Cl)cccc32)n1` the ED50 (Rattus norvegicus [24]) was 3.74 mg/kg.
With `CCn1c(=O)c2c(C(=O)OC)c(C(=O)O)cn2c2ccccc21` the ED50 (Rattus norvegicus [25]) was “inactive”.
With `CCn1c(=O)c2cc(C(=O)O)cn2c2cc(C)c(C)cc21` the ED50 (Rattus norvegicus [26]) was 0.03 mg/kg.
In the case of `O=C(O)c1cc2ccc3ccccc3n2c1`, the ED50 (Rattus norvegicus [12]) is reported as “inactive”.
In the case of `Cc1cc2sc3nc(C(=O)O)cn3c2cc1C`, the ED50 (Rattus norvegicus [27]) is reported as 0.3 mg/kg.
For `O=C(O)c1cn2c(n1)c(CO)cc1ccccc12`, the ED50 (Rattus norvegicus [12]) was “inactive”.
